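Where inhibition never reached the appropriate level, the endpoint shown equals the highest concentration tested. Otherwise, values were interpolated linearly from a five-concentration, 48-hour dose response in 96-well plates. The concentration for full growth arrest is given as TGI.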
How the values were obtained:
Experiment in all cases: NCI-60 cell line screen, 48 h
[1] = test system: A549 NSCLC
[2] = test system: ACHN renal
[3] = test system: CAKI-1 renal
[4] = test system: CCRF-CEM leukemia
[5] = test system: COLO 205 colon
[6] = test system: HCT-116 colon
[7] = test system: K-562 leukemia
[8] = test system: MCF7 breast
[9] = test system: MDA-MB-435
[10] = test system: MDA-N
[11] = test system: MOLT-4 leukemia
[12] = test system: NCI-H460 lung
[13] = test system: OVCAR-5 ovarian
[14] = test system: PC-3 prostate
[15] = test system: SF-539 CNS
[16] = test system: SK-MEL-5 melanoma
[17] = test system: SK-OV-3 ovarian
[18] = test system: SN12C renal
[19] = test system: SNB-75 CNS
[20] = test system: UACC-257 melanoma

Measured: TGI

Cc1cc(C)c(/C=C(\C(=C/c2c(C)cc(C)cc2C)[N+](=O)[O-])[N+](=O)[O-])c(C)c1
> 100 µM: all assays above

O=S1(=O)C[C@@H](NCc2ccccc2)[C@H](NCc2ccccc2)C1
> 100 µM: all assays above
